Measured values as given in patent US8093231B2, “Sulfonylethyl phosphorodiamidates” (Telik, Inc., priority 2004, dated 2012).
pIC50: −log10 of the molar value. Read-outs that look alike come from different tables or passages of the source.

Assays:
Type in all cases: cell-based, human
MX-1 (breast carcinoma) = test: Cytotoxicity/growth inhibition assay, MX-1; conditions: read-out: IC50 (MX-1)
Source text: (§1) The human cancer cell lines DLD-1 (colorectal adenocarcinoma), LNCap (prostate carcinoma), and OVCAR-3 (ovarian carcinoma) were obtained from the American Type Culture Collection, Manassas, Va., U.S.A., and HL-60 (promyeloid myelocytic leukemia), MX-1 (breast carcinoma), P388, and P388ADR from the National Cancer Institute, Bethesda, Md., U.S.A. Carboplatin, doxorubicin, and melphalan were obtained from Sigma-Aldrich Chemical Company, St. Louis, Mo., U.S.A. The CellTiter-Glo assay kit was obtained from Promega Corporation, Madison, Wis., U.S.A., and the Cellular DNA Cytometric Analysis Reagent Kit from Roche Diagnostics Corporation, Indianapolis, Ind., U.S.A. Lambda DNA was obtained from New England Biolabs, Beverly, Mass., U.S.A., and SYBR-Gold from Molecular Probes, Inc., Eugene, Oreg., U.S.A. The DNeasy Tissue Kit was obtained from Qiagen Inc., Valencia, Calif., U.S.A., and AmpliTaq Gold DNA polymerase and PCR reagents from Applied Biosystems, Foster City, Calif., U.S.A. All products were used in accordance with manufacturer's directions. All assays were conducted in triplicate wells, with dimethyl sulfoxide (DMSO) solvent control. The extent of cell growth was expressed as a percentage of the signal from the solvent control wells.
(§2) Log-phase cells were trypsinized, collected by centrifugation, and resuspended in a small volume of fresh medium, and the density of viable cells was determined following Trypan Blue staining. Cells were diluted in fresh media (3×10^3 cells/mL for MX-1, 3×10^3 cells/mL for DLD-1, and 6×10^3 cells/mL for LNCap cells), the test compounds (concentrations between 0.1 and 200 μM, dissolved in DMSO, 50 μL) added immediately after dilution to achieve a final DMSO concentration of 0.5%, then the suspensions added at 150 μL/well to 96-well plates, and incubated for several hours to allow attachment in the case of adherent cells. The cells were cultured for approximately three doubling times (3 days for MX-1 and 4 days for DLD-1 and LNCap). The cells were then collected by centrifugation, and 100 μL of the culture supernatant was replaced by the CellTiter-Glo reagent. After incubation for 15 minutes at room temperature, and the plate was read with a luminometer.

[1] = tested on: LNCap (prostate carcinoma); test: Cytotoxicity/growth inhibition assay, LNCap; conditions: read-out: IC50 (LNCap)
Source text: as §1, §2

[2] = tested on: DLD-1 (colorectal adenocarcinoma); test: Cytotoxicity/growth inhibition assay, DLD-1; conditions: read-out: IC50 (DLD-1)
Source text: as §1, §2

[3] = MX-1 cells, 3 days culture, CellTiter-Glo, 0.1-200 μM tested
[4] = LNCap cells, 4 days culture, CellTiter-Glo, 0.1-200 μM tested
[5] = DLD-1 cells, 4 days culture, CellTiter-Glo, 0.1-200 μM tested

| SMILES | pIC50 (MX-1 (breast carcinoma); [3]) | pIC50 [1, 4] | pIC50 [2, 5] | pIC50 (MX-1 (breast carcinoma); Homo sapiens, MX1, 72 h) | pIC50 ([1]; Homo sapiens, LNCaP, 96 h) | pIC50 ([2]; Homo sapiens, DLD-1, 96 h) |
| --- | --- | --- | --- | --- | --- | --- |
| O=P(OCCS(=O)(=O)C1CCCC1)(N(CCCl)CCCl)N(CCCl)CCCl [Compound 10A] | 4.84 | 4.37 | 5.11 | – | – | – |
| O=P(OCCS(=O)(=O)c1ccccc1S(=O)(=O)CCOP(=O)(N(CCCl)CCCl)N(CCCl)CCCl)(N(CCCl)CCCl)N(CCCl)CCCl [Compound 10B] | 4.97 | 5.72 | 5.21 | – | – | – |
| O=P(OCCS(=O)(=O)C1CCCCC1)(N(CCCl)CCCl)N(CCCl)CCCl [Compound 11A] | 4.98 | 4.74 | 5.40 | – | – | – |
| O=P(OCCS(=O)(=O)c1cccc(S(=O)(=O)CCOP(=O)(N(CCCl)CCCl)N(CCCl)CCCl)c1)(N(CCCl)CCCl)N(CCCl)CCCl [Compound 11B] | 5.52 | 5.35 | 5.68 | – | – | – |
| CCCCCCCCS(=O)(=O)CCOP(=O)(N(CCCl)CCCl)N(CCCl)CCCl [Compound 12A] | 4.86 | 4.85 | 5.46 | – | – | – |
| O=P(OCCS(=O)(=O)c1ccc(S(=O)(=O)CCOP(=O)(N(CCCl)CCCl)N(CCCl)CCCl)cc1)(N(CCCl)CCCl)N(CCCl)CCCl [Compound 12B] | 5.37 | 5.15 | 5.72 | – | – | – |
| O=P(OCCS(=O)(=O)Cc1ccccc1CS(=O)(=O)CCOP(=O)(N(CCCl)CCCl)N(CCCl)CCCl)(N(CCCl)CCCl)N(CCCl)CCCl [Compound 13B] | 5.72 | 5.33 | 5.64 | – | – | – |
| O=C(O)CS(=O)(=O)CCOP(=O)(N(CCCl)CCCl)N(CCCl)CCCl [Compound 14A, 2-[[2-[[bis[bis(2-chloroethyl)amino]phosphinyl]oxy]-ethyl]sulfonyl]acetic acid] | – | – | – | 4.21 | ≤ 3.70 | 4.75 |
| O=P(OCCS(=O)(=O)Cc1cccc(CS(=O)(=O)CCOP(=O)(N(CCCl)CCCl)N(CCCl)CCCl)c1)(N(CCCl)CCCl)N(CCCl)CCCl [Compound 14B] | 5.64 | 5.24 | 5.49 | – | – | – |
| O=P(OCCS(=O)(=O)Cc1ccc(CS(=O)(=O)CCOP(=O)(N(CCCl)CCCl)N(CCCl)CCCl)cc1)(N(CCCl)CCCl)N(CCCl)CCCl [Compound 15B] | 5.85 | 5.36 | 5.62 | – | – | – |
| O=P(OCCS(=O)(=O)CCO)(N(CCCl)CCCl)N(CCCl)CCCl [Compound 16A] | 4.89 | 4.44 | 5.02 | – | – | – |
| O=[N+]([O-])c1cc(CS(=O)(=O)CCOP(=O)(N(CCCl)CCCl)N(CCCl)CCCl)cc(CS(=O)(=O)CCOP(=O)(N(CCCl)CCCl)N(CCCl)CCCl)c1 [Compound 16B] | 5.54 | 5.04 | 5.35 | – | – | – |
| CC(=O)NCCS(=O)(=O)CCOP(=O)(N(CCCl)CCCl)N(CCCl)CCCl [Compound 17A] | 5.20 | 4.86 | 5.38 | – | – | – |
| Nc1cc(CS(=O)(=O)CCOP(=O)(N(CCCl)CCCl)N(CCCl)CCCl)cc(CS(=O)(=O)CCOP(=O)(N(CCCl)CCCl)N(CCCl)CCCl)c1 [Compound 17B] | 5.21 | 4.73 | 5.34 | – | – | – |
| O=C(O)CCC(=O)Nc1cc(CS(=O)(=O)CCOP(=O)(N(CCCl)CCCl)N(CCCl)CCCl)cc(CS(=O)(=O)CCOP(=O)(N(CCCl)CCCl)N(CCCl)CCCl)c1 [Compound 18B] | 5.08 | 4.30 | 5.57 | – | – | – |
| O=C(CS(=O)(=O)CCOP(=O)(N(CCCl)CCCl)N(CCCl)CCCl)N1CCN(Cc2ccccc2)CC1 [Compound 19A] | 4.83 | 4.75 | 5.09 | – | – | – |
| NCC(=O)Nc1cc(CS(=O)(=O)CCOP(=O)(N(CCCl)CCCl)N(CCCl)CCCl)cc(CS(=O)(=O)CCOP(=O)(N(CCCl)CCCl)N(CCCl)CCCl)c1 [Compound 19B] | 5.12 | 4.28 | 5.42 | – | – | – |
| O=C(CS(=O)(=O)CCOP(=O)(N(CCCl)CCCl)N(CCCl)CCCl)Nc1ccc([N+](=O)[O-])cc1 [Compound 20A] | 5.37 | 5.44 | 5.55 | – | – | – |
| CN(C)CC(=O)Nc1cc(CS(=O)(=O)CCOP(=O)(N(CCCl)CCCl)N(CCCl)CCCl)cc(CS(=O)(=O)CCOP(=O)(N(CCCl)CCCl)N(CCCl)CCCl)c1 [Compound 20B] | 5.29 | 4.48 | 5.40 | – | – | – |

| SMILES | pIC50 (MX-1 (breast carcinoma); [3]) | pIC50 [1, 4] | pIC50 [2, 5] | pIC50 (MX-1 (breast carcinoma); Homo sapiens, MX1, 72 h) | pIC50 ([1]; Homo sapiens, LNCaP, 96 h) | pIC50 ([2]; Homo sapiens, DLD-1, 96 h) |
| --- | --- | --- | --- | --- | --- | --- |
| O=C(CS(=O)(=O)CCOP(=O)(N(CCCl)CCCl)N(CCCl)CCCl)Nc1ccc([N+](=O)[O-])c(C(F)(F)F)c1 [Compound 21A] | 5.38 | 5.20 | 5.55 | – | – | – |
| O=C(Nc1cc(CS(=O)(=O)CCOP(=O)(N(CCCl)CCCl)N(CCCl)CCCl)cc(CS(=O)(=O)CCOP(=O)(N(CCCl)CCCl)N(CCCl)CCCl)c1)C1CCCNC1 (stereo not drawn) [Compound 21B] | 4.83 | 3.88 | 5.39 | – | – | – |
| CN1CCN(C(=O)CS(=O)(=O)CCOP(=O)(N(CCCl)CCCl)N(CCCl)CCCl)CC1 [Compound 22A] | 4.63 | 4.41 | 5.08 | – | – | – |
| O=C(Nc1cc(CS(=O)(=O)CCOP(=O)(N(CCCl)CCCl)N(CCCl)CCCl)cc(CS(=O)(=O)CCOP(=O)(N(CCCl)CCCl)N(CCCl)CCCl)c1)c1cccnc1 [Compound 22B] | 5.15 | 4.39 | 5.60 | – | – | – |
| O=P(OCCS(=O)(=O)c1cccc2c(S(=O)(=O)CCOP(=O)(N(CCCl)CCCl)N(CCCl)CCCl)cccc12)(N(CCCl)CCCl)N(CCCl)CCCl [Compound 23B, 1,5-di[[2-[[bis[bis(2-chloroethyl)amino]phosphinyl]oxy]ethyl]sulfonyl]naphthalene] | – | – | – | 5.96 | 5.42 | 6.15 |
| O=C(CS(=O)(=O)CCOP(=O)(N(CCCl)CCCl)N(CCCl)CCCl)Nc1ccccn1 [Compound 24A] | 4.95 | 4.92 | 5.26 | – | – | – |
| CC(C)(C)OC(=O)[C@@H](Cc1ccccc1)NC(=O)CS(=O)(=O)CCOP(=O)(N(CCCl)CCCl)N(CCCl)CCCl [Compound 25A] | 5.25 | 4.72 | 5.43 | – | – | – |
| O=C(CS(=O)(=O)CCOP(=O)(N(CCCl)CCCl)N(CCCl)CCCl)NC(Cc1ccccc1)C(=O)O (stereo not drawn) [Compound 26A] | 4.53 | 4.11 | 5.08 | – | – | – |
| CC(C)(C)OC(=O)NCCCC[C@H](NC(=O)CS(=O)(=O)CCOP(=O)(N(CCCl)CCCl)N(CCCl)CCCl)C(=O)OC(C)(C)C [Compound 27A] | 5.21 | 4.81 | 5.44 | – | – | – |
| CN(CC(=O)OC(C)(C)C)C(=O)CS(=O)(=O)CCOP(=O)(N(CCCl)CCCl)N(CCCl)CCCl [Compound 28A] | 5.05 | 4.45 | 5.29 | – | – | – |
| O=C(O)CCS(=O)(=O)CCOP(=O)(N(CCCl)CCCl)N(CCCl)CCCl [Compound 29A] | 4.64 | 4.18 | 4.94 | – | – | – |
| COC(=O)c1ccc(NC(=O)CS(=O)(=O)CCOP(=O)(N(CCCl)CCCl)N(CCCl)CCCl)cc1 [Compound 30A] | 5.04 | 4.88 | 5.19 | – | – | – |
| N[C@@H](CCCNC(=O)CS(=O)(=O)CCOP(=O)(N(CCCl)CCCl)N(CCCl)CCCl)C(=O)O [Compound 32A] | 4.39 | 3.75 | 4.95 | – | – | – |
| O=C(CS(=O)(=O)CCOP(=O)(N(CCCl)CCCl)N(CCCl)CCCl)Nc1ccc(C(=O)O)cc1 [Compound 33A] | 4.69 | 4.01 | 5.07 | – | – | – |
| CN(CC(=O)O)C(=O)CS(=O)(=O)CCOP(=O)(N(CCCl)CCCl)N(CCCl)CCCl [Compound 34A] | 5.05 | 4.01 | 4.92 | – | – | – |
| CC(C)(C)OC(=O)CCNC(=O)CS(=O)(=O)CCOP(=O)(N(CCCl)CCCl)N(CCCl)CCCl [Compound 37A] | 5.10 | 4.54 | 5.10 | – | – | – |
| CC(C)(C)OC(=O)CNC(=O)CS(=O)(=O)CCOP(=O)(N(CCCl)CCCl)N(CCCl)CCCl [Compound 38A] | 5.10 | 4.63 | 5.12 | – | – | – |
| CC(=O)N[C@@H](CS(=O)(=O)CCOP(=O)(N(CCCl)CCCl)N(CCCl)CCCl)C(=O)O [Compound 73A] | 4.53 | 4.14 | 4.74 | – | – | – |
| CC(=O)NC(C(=O)O)C(C)(C)S(=O)(=O)CCOP(=O)(N(CCCl)CCCl)N(CCCl)CCCl (stereo not drawn) [Compound 74A] | 4.33 | ≤ 3.70 | 4.57 | – | – | – |
